The source of these data is patent US5420135A, “Substituted quinoline derivatives” (Smith Kline & French Laboratories Limited, priority 1989, dated 1995).

This assay concerns isolated rat osteoclasts. As to the kind of experiment: Bone resorption by isolated rat osteoclasts on cortical bone slices. It is filed as cell-based. The following applies: Osteoclast, 18 hours, Mean ± SEM, n = 12, control 100 ± 27. As to the method: Bone resorption was measured by the actions of isolated rat osteoclasts on cortical bone slices (Zaidi et al. Quarterly Journal of Experimental Physiology 1988 73:471-485). Newborn Wistar rats were killed by decapitation and their femora and tibiae removed. Osteoclasts were mechanically disaggregated by curetting the bones into medium followed by agitation with a pipette. Osteoclasts were separated from other cells by sedimentation onto bone slices (15 minutes, 37°) after which the slices were removed and gently washed. The bone slices were then incubated in the presence of test compounds (37°, 10% humidified CO2, 18 hours) and fixed with glutaraldehyde. The degree of bone resorption was then assessed by the area of erosions produced by the osteoclasts using scanning electron microscopy. Data were meaned from measurements of 6 bone slices in each of two independent experiments.
Test compounds were dissolved in ethanol which was also added to control incubations (1%) in the absence of compound.

In turn, `Cc1ccccc1-n1nnc2cnc3ccccc3c21` [Example 2, 1-(2-Methylphenyl)triazolo[4,5-c]quinoline] gave an activity at 10 µM (Conc. 10 μM) of 49 ± 20%. This compound registered an activity at 100 µM (Conc. 100 μM) of 0%.
